US5256528A, “Magenta image-dye couplers of improved hue” (Eastman Kodak Company, priority 1992, dated 1993)

What was measured:
[1] = Photographic gamma (slope of status M green density vs. exposure), C-41 process; conditions: coupler:S1 1:0.5
Procedure: (§1) Dispersions of the comparative couplers B1-B3 and B8 and of the couplers of this invention M1-M3 were prepared by dissolving the coupler in the coupler solvent S1 plus the auxiliary solvent 2-(2-butoxyethoxy)ethyl acetate and then dispersing this oil phase in an aqueous solution of gelatin and surfactant using an ultrasonic probe. The dispersions were chilled and washed for 6 hr at 4° C. to remove the auxiliary solvent. The dispersions contained approximately 8.8% coupler, 4.4% S1 and 6% gelatin by weight.
(§2) The dispersions were coated at 1.04 mmole/sq m together with a silver bromoiodide emulsion on a transparent acetate support in the format shown below. Hardened film strips were exposed through a 0-4 neutral density stepwedge and daylight V and WRATTEN 9 filters and subjected to a standard C-41 process at 37.8° C. The process consists of 2.5 min in color developer, 4 min in a ferric EDTA/PDTA bleach solution, 2 min wash, 4 min fix and 2 min final wash. Photographic gamma values were obtained from the slopes of plots of status M green density vs. exposure for processed samples. Absorption spectra of the dye-containing processed films were measured at a density near 1.0 on a spectrophotometer and the wavelengths of maximum absorption (λ max values) were recorded.
(§3) BVSM* Hardener 0.06 g/sq m
(§4) Coupler Solvent S1 1/2 coupler laydown
(§5) Dispersions of couplers B3, M1 and M5 with S1 (1:0.5) were prepared and coated as in Example 2. Film strips of these coatings were exposed, processed and analyzed as in Example 2. λmax values and gamma values associated with these film compositions are listed in Table III. This series further illustrates the use of electron-withdrawing substituents to obtain magenta dyes of the proper hue.
(§6) Dispersions of the comparative couplers B4, B5 and B8 and the couplers of this invention M6-M11 were prepared and coated as in Example 2. The coupler solvent S1 was again used at a 1:0.5 coupler:S1 weight ratio. Film strips of the hardened coatings were exposed, processed and analyzed as in Example 2. Couplers B4 and M6-M8 have a strongly electron-withdrawing alkoxycarbonyl substituent in the R2 position and couplers B5 and M9-M11 have a strongly electron-withdrawing alkylsulfonyl group at R2. […] The couplers of this invention, M6-M11, which have strong electron-withdrawing groups in each ring, yield dyes having the desired bathochromic hues, as shown by the λmax values. The gamma values obtained with the couplers of this invention are suitably high to be useful in photographic materials, as indicated by comparison to the gamma obtained from the commercial coupler B8.
(§7) Dispersions of the comparison couplers B6 and B7, and of the couplers of this invention M12-M17, were prepared using the coupler solvent Sl as in Example 2. These were coated as in Example 2, and hardened film strips were exposed, processed and analyzed as in Example 2. The results obtained are summarized in Table V. In this example all of the couplers have sulfamoyl or alkylsulfonyl substituents in the R1 position and the R2 substituent on the 3-anilino ring is varied. Comparative couplers B6 and B7 have chloro substituents at R2, whereas M12-M17 of this invention have strong electron withdrawing R2 groups. […] The gamma values of the couplers of this invention are similar to those of the comparative couplers.

[2] = Continued coupling in bleach, delta Dmin process B - process A; conditions: Table VI
Procedure: (§8) Dispersions of the coupler B3 were prepared with coupler solvents S1 and C2, both at a 1:1 B3:coupler solvent weight ratio. Dispersions of coupler M1 were prepared with C2 at 1:1 and with C2 plus aniline A1 at a 1:0.8:0.2 M1:C2:A1 weight ratio. These dispersions were prepared by dissolving the coupler in a mixture of coupler solvent, aniline A1 (optional) and cyclohexanone. The coupler:cyclohexanone weight ratio was 1:3. This mixture was then added to an aqueous solution of gelatin and ALKANOL XC surfactant. The two-phase mixture was then passed through a colloid mill to disperse the coupler-containing oil phase in the aqueous phase in the form of small droplets. The dispersion was then chilled, noodled and washed to remove the auxiliary cyclohexanone solvent. The resulting dispersions contained approximately 2% by weight of coupler and 6% by weight of gelatin.
(§9) The dispersions were then coated on a transparent support together with a silver bromoiodide emulsion in the format shown below. Coatings were then exposed through a stepwedge and subjected to variants of the KODAK FLEXICOLOR (C-41) process described below. One set of film samples was processed with an acetic acid stop bath between the development and bleach steps (process A). A second set of films was processed without a stop bath and with the bleach pH adjusted to 6.0 instead of the normal 5.25 (process B). This is intended to simulate behavior in a "seasoned" bleach whose pH increases due to carry-over of base from the developer solution. The difference between Dmin values (densities obtained in unexposed portions of the films) between process A and process B are due to continued coupling between coupler and developer carried over into the bleach. Both the lack of a stop bath and the high bleach pH in process B aggravate continued coupling. It is desirable to minimize Dmin density and Dmin variability due to continued coupling. Since conditions similar to process B are encountered in simplified trade processing, it is desirable to minimize continued coupling, as measured by the delta Dmin of process B - process A. These delta Dmin values are listed in Table VI along with λmax values and gamma values (obtained from plots of status M green density versus exposure).
(§10) 2.6 g/sq m Gelatin + 1.75 weight % BVSME* Hardener
(§11) Coupler Solvent + or - A1 @ equal weight to coupler
(§12) 1.08 g/sq m Silver Emulsion
(§13) //////Cellulose Acetate Butyrate Support//////
or Standard C-41 Bleach II
2B Bleach II Adjusted to pH = 6.0
(§14) Also included in this comparison was a 1:1 dispersion of M1 plus C2 to which was added the DIR coupler D1 (shown above) at a M1:D1 weight ratio of 1:0.045.

[3] = Formaldehyde exposure test (loss of dye density obtainable on processing); conditions: Table II, Example 3; 48 hr formaldehyde exposure, 60% RH; relative to water-glycerol only
Description: Prior examples of 3-anilino-1-phenyl-5-pyrazolone couplers that yield bathochromic dyes have been limited to four-equivalent couplers or to couplers with coupling-off groups other than arylthio or alkylthio groups. The four-equivalent couplers are not suitable for the practice of this invention because of their high propensity to react with formaldehyde or other hardeners. This can be illustrated by exposing coupler-containing films to formaldehyde and noting the changes in the dye density obtainable upon photographic processing. To obtain the data in Table II one set of film strips was suspended in a light-tight tank over a beaker containing 10 g of formaldehyde, and a solution of 14 g of water and 36 g of glycerol (60% RH) for 48 hr. A second set of strips was suspended for 48 hr over a water-glycerol solution without the beaker of formaldehyde. The strips were then exposed through a stepwedge, process (C-41) and the densities were measured. Values of the percent reduction in (Dmax-Dmin) for the samples exposed to formaldehyde relative to the samples exposed to water-glycerol only were determined.
Coatings of B8,B9 and M1 prepared as described in Example 2 were subjected to the formaldehyde test.

[4] = Absorption spectra of dye-containing processed films (λmax), C-41 process; assay type: physicochemical; conditions: coupler:S1 1:0.5
Procedure: as §1, §2, §3, §4, §5, §6, §7

[5] = λmax with coupler solvents and addenda (KODAK FLEXICOLOR C-41 variants); assay type: physicochemical; conditions: Table VI
Procedure: as §8, §9, §10, §11, §12, §13, §14

[6] = Photographic gamma with coupler solvents and addenda (KODAK FLEXICOLOR C-41 variants); conditions: Table VI; C2(0.8), aniline A1(0.2), no DIR coupler
Procedure: as §8
as §9, with “Both the lack of a stop bath and the high bleach pH in process B aggravate continued coupling. It is desirable to minimize Dmin density and Dmin variability due to continued coupling.” left out, “exposure). […]” for “exposure).”

[7] = Unwanted blue light absorption of magenta dye in film (absorption spectra, FIGURE); assay type: physicochemical; conditions: relative to dye derived from comparative coupler B5
Procedure: as §2
Dispersions of the comparative couplers B4, B5 and B8 and the couplers of this invention M6-M11 were prepared and coated as in Example 2. The coupler solvent S1 was again used at a 1:0.5 coupler:S1 weight ratio. Film strips of the hardened coatings were exposed, processed and analyzed as in Example 2. Couplers B4 and M6-M8 have a strongly electron-withdrawing alkoxycarbonyl substituent in the R2 position and couplers B5 and M9-M11 have a strongly electron-withdrawing alkylsulfonyl group at R2. […]

[8] = C2(0.8), aniline A1(0.2), no DIR coupler
[9] = C2(1.0), no aniline, DIR coupler D1(0.045)
[10] = C2(1.0), no aniline, no DIR coupler

| λmax(nm) (+-0.5) ([4]; Table I, Example 2) | λmax(nm) [5, 8] [nm] | λmax(nm) [5, 9] [nm] | λmax(nm) [5, 10] [nm] | λmax(nm) (+-0.5) ([4]; Table IV, Example 5) | Compound | Gamma ([1]; Table III, Example 4) | Delta Dmin Process B-A [2, 8] | Delta Dmin Process B-A [2, 9] | Delta Dmin Process B-A [2, 10] | % Density Loss after Formaldehyde Exposure [3] [%] | Gamma [6] | Gamma ([1]; Table IV, Example 5) | unwanted blue light absorption at 480 nm [7] |
| --- | --- | --- | --- | --- | --- | --- | --- | --- | --- | --- | --- | --- | --- |
| 550.5 | 549 | 549 | 549 | – | CCCCCCCCCCCCNS(=O)(=O)c1ccc(NC2=NN(c3c(Cl)cc(S(=O)(=O)N4CCOCC4)cc3Cl)C(=O)C2Sc2cc(C(C)(C)CC(C)(C)C)ccc2OCCCC)c(Cl)c1 (stereo not shown) [Coupler M1] | 4.4 | 0.040 | 0.088 | 0.073 | 3 | 1.83 | – | – |
| – | – | – | – | 551.0 | CCCCCCCCCCCCS(=O)(=O)c1ccc(NC2=NN(c3c(Cl)cc(C#N)cc3Cl)C(=O)C2Sc2cc(C(C)(C)CC(C)(C)C)ccc2OCCCC)c(Cl)c1 (stereo not shown) [Coupler M11] | – | – | – | – | – | – | 3.3 | less unwanted blue light absorption at 480 nm |
